The values below are quoted from earlier work in patent US12576017B2, “Sunscreen composition with enhanced photoprotection” (Edgewell Personal Care Brands, LLC, priority 2021, dated 2026).

The conditions of the data set: lipid/water partition.

Turning to `Nc1ccc(C(=O)O)cc1` [PABA, p-Amino benzoic acid], the “Log P @25° C.” value is reported as 0.74. Regarding `COc1cc(O)c(C(=O)c2ccccc2)cc1S(=O)(=O)O` [Benzophenone-4, 2-hydroxy-4-methoxybenzophenone-5-sulfonic acid], the “Log P @25° C.” value was −1.51. Turning to `CCOCCOC(=O)/C=C/c1ccc(OC)cc1` [Cinoxate, Ethoxyethyl methoxy cinnamate], the “Log P @25° C.” value is recorded as 2.55. Turning to `CCCCC(CC)COC(=O)c1ccccc1O` (stereo not shown) [Octyl salicylate, 2-Ethylhexyl salicylate], the “Log P @25° C.” value was 5.30. Turning to `COc1ccc(C(=O)c2ccccc2O)c(O)c1` [Benzophenone-8, 2,2′-dihydroxy-4-methoxybenzophenone], the “Log P @25° C.” value is given as 2.15.

With `CC1CCC(C(C)C)C(OC(=O)c2ccccc2N)C1` (stereo not shown) [Menthyl anthranilate, Menthyl-O aminobenzoate], the “Log P @25° C.” value was 5.05. Take `CCOC(=O)c1ccc(N(CC(C)O)CC(C)O)cc1` (stereo not shown) [Ethyl dihydroxypropyl PABA, Ethyl-4-bis(2-hydroxypropyl-aminobenzoate)]: the “Log P @25° C.” value is given as 2.84. `CCCCC(CC)COC(=O)C=Cc1ccc(OC)cc1` (stereo not shown) [Octyl methoxy cinnamate, Ethylhexyl-p-methoxy cinnamate]: the “Log P @25° C.” value is listed as 5.65. As for `CCCCC(CC)COC(=O)c1ccc(N(C)C)cc1` (stereo not shown) [Octyl dimethyl PABA, 2-Ethylhexyl-p-dimethyl aminobenzoate], the “Log P @25° C.” value is on record as 6.08.

Turning to `CC1CC(OC(=O)c2ccccc2O)CC(C)(C)C1` (stereo not shown) [Homosalate, Homomenthyl salicylate], the “Log P @25° C.” value is 5.61. Regarding `Nc1ccc(C(=O)OCC(O)CO)cc1` (stereo not shown) [Glyceryl PABA, 1,2,3-Propanetriol,1-(4-aminobenzoate)], the “Log P @25° C.” value was −0.02. For `CCCCC(CC)COC(=O)C(C#N)=C(c1ccccc1)c1ccccc1` (stereo not shown) [Octocrylene, Octyl cyanodiphenylacrylate], the “Log P @25° C.” value is given as 5.69. For the compound `COc1ccc(C(=O)c2ccccc2)c(O)c1` [Benzophenone-3, 2-hydroxy-4-methoxybenzophenone], the “Log P @25° C.” value is 2.63.
